Results published in patent US12458659B2, “Methods for treating macrophage-mediated diseases, and methods of identifying agents useful therefore” (The Regents of the University of California, priority 2019, dated 2025).

System: BMDM
Test: Mitochondrial reactive oxygen species (MitoSOX)
Format: cell-based, mouse
Settings: BMDM pretreated with RSM932A, LPS+DOTAP or LPS+nigericin
Procedure: Mitochondrial Function—Mitochondrial membrane potential (Ψm) was measured using TMRM (#T668, Life Technologies) according to manufacturer's instructions. Briefly, RSM932A-pretreated BMDM and shCtrl and shChoKα iBMDM were primed with LPS for 4 hr. Cells were stained with 200 nM TMRM for 30 min at 37° C., and then treated with CCCP (5 μM) for 5 min. After washing twice, fluorescence intensity was determined per manufacturer's instructions using a FilterMax F5 multimode plate reader (Molecular Devices), Mitochondrial reactive oxygen species (mtROS) was measured using MitoSOX (Invitrogen) as described (Zhong et al., 2016c). […] After washing with PBS, fluorescence intensity was determined at 510/580 nm using a FilterMax F5 plate reader. NAD^+/NADH ratio was measured using NAD^+/NADH Cell-Based Assay kit according to manufacturer's instructions (Cayman Chemical Company). […] Absorbance was measured at 450 nm using FilterMax F5 plate reader. Complex V ATP synthase activity was measured in mitochondria isolated from BMDM treated with LPS for 24 hr using Complex V Activity Assay kit (Cayman Chemical Company) according to manufacturer's instructions. Absorbance was measured at 340 nm at 30-second intervals for 30 min using a FilterMax F5 plate reader. Cellular ATP was measured after 24 hr LPS stimulation using CellTiter-Glo Luminescent Assay (Promega) as described (Ip et al., 2017). […]

SMILES: C/[N+](c1ccc(Cl)cc1)=c1\ccn(Cc2ccc(-c3ccc(Cn4cc/c(=[N+](/C)c5ccc(Cl)cc5)c5ccccc54)cc3)cc2)c2ccccc12 [RSM932A]
- production of mitochondrial reactive oxygen species (mtROS): attenuated
